Experimental data published in patent US12310236B2, “Encapsulant preventing lead leakage on perovskite, method for encapsulating perovskite to prevent lead leakage and perovskite photosensitive device comprising the same” (PUKYONG NATIONAL UNIVERSITY INDUSTRY—UNIVERSITY COOPERATION …, priority 2023, dated 2025).

Assay: Solvent solubility of the crown ether compounds in the coating solution
Type: physicochemical
Settings: ethanol coating solution
Experimental: We prepared a coating solution for performing the perovskite encapsulating method. 18-crown-6-ether (hereafter, referred to as a raw material) was prepared as the crown ether. A compound (hereinafter, referred to as di-benzo) in which only two benzene rings are bonded to the crown ether was prepared as a comparative group. […] The di-benzo was dissolved in ethanol at 0.01 to 0.03% by weight. […] Thus, resulting solutions were prepared.

Question: With c1ccc2c(c1)OCCOCCOc1ccccc1OCCOCCO2 [di-benzo] as the compound, how does the solvent solubility read?
Answer: Its solvent solubility is ≤ 0.03 % by weight.
